The text below walks through data of patent US20070111267A1, “Method of determining efficacy of anticancer drug and determination kit therefor” (priority 2003, published 2007).

The test system of one assay is p27 protein. The note with it: reported in Tomoda K et al. J Biol Chem. 2002; cited from earlier work.
For the next assay, the system named is K562. The assay is described as follows: Sensitivity of cell line to the tyrosine kinase inhibitor. The format is cell-based, human. An excerpt:
K562: human CML cell line. Expression of Bcr-Abl protein. Sensitive to Bcr-Abl inhibitor.
(§1) One to two μM STI571 was directly added to a cell culture.

Another assay concerns MEG. The assay is described as above. The format is cell-based, human.
From the text: MEG: human CML cell line. Expression of Bcr-Abl protein. Sensitive to Bcr-Abl inhibitor.
as §1

A further assay relates to MOLM1. The description is as above. The assay is classed as cell-based, human.
From the text: MOLM1: human CML cell line. Expression of Bcr-Abl protein. Sensitive to Bcr-Abl inhibitor.
as §1

The next assay relates to KYO-1. The description is as above. The format is cell-based, human. Conditions: KYO-1 cell line.
From the text: KYO-1: human CML cell line. Expression of Bcr-Abl protein. Resistant to Bcr-Abl inhibitor. See Leukemia Research 9: 921-926, (1985).
as §1

The test system of another assay is CMK. The assay is described as above. The assay is classed as cell-based, human.
From the text: CMK: human megakaryocytic leukemia cell line. No expression of Bcr-Abl protein. Resistant to Bcr-Abl inhibitor.
as §1

In the next assay the test system is HEL. Described as above. The assay is classed as cell-based, human.
From the text: HEL: human erythrocytic leukemia cell line. No expression of Bcr-Abl protein. Resistant to Bcr-Abl inhibitor.
as §1

Counter-ions that a name gives are not always drawn.

On to `CCC(=C/[C@H](C)C/C=C/C(C)=C/[C@@H](C)C(=O)[C@@H](C)[C@H](O)[C@@H](C)C/C(C)=C/C(=O)O)/C=C/[C@@H]1OC(=O)C=C[C@@H]1C` [leptomycin B], for which, in the assay with p27 protein, the “degradation of p27 protein by the Jab1 small complex” value is “inhibited”.

On to `Cc1ccc(NC(=O)c2ccc(CN3CCN(C)CC3)cc2)cc1Nc1nccc(-c2cccnc2)n1` [tyrosine kinase inhibitor, imatinib mesylate], for which the “Sensitivity to the tyrosine kinase inhibitor” value with K562 is given as “sensitive”; with MEG it was “sensitive”; in the assay with MOLM1, “sensitive”; with KYO-1 it was “resistant”; in the assay with CMK, “resistant”; in the assay on HEL it was “resistant”.
